The values below come from US8071768B2, “Alkylquinoline and alkylquinazoline kinase modulators” (Janssen Pharmaceutica, N.V., priority 2005, dated 2011).

For orientation: IC50 means the point on the concentration scale where inhibition reaches its midpoint. The low end stands for inhibition by little substance, the high end for a need for much substance.

T1 sequence (Q16620 32-822): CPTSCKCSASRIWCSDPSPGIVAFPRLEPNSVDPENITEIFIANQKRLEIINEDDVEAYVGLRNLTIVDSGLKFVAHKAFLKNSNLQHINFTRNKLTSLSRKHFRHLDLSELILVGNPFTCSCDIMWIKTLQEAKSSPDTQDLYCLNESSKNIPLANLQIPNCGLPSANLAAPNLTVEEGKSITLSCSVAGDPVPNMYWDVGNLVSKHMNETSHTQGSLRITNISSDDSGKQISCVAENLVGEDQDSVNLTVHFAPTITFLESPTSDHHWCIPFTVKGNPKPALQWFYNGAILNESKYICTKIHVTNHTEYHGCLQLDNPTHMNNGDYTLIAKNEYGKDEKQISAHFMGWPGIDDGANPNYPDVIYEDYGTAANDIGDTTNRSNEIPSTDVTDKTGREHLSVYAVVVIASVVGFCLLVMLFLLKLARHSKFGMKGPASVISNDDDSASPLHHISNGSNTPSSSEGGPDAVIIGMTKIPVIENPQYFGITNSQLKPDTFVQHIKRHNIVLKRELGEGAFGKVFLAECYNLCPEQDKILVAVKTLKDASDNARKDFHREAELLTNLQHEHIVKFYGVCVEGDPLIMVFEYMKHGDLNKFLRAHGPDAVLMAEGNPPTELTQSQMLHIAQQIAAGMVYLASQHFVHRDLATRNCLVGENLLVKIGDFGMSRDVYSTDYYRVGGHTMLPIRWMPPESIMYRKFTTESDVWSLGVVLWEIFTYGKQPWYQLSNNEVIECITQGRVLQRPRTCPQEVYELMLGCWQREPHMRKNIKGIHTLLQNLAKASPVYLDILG

This assay concerns the target T1, TrkB (Homo sapiens, UniProt Q16620).
T1 construct: purchased Upstate 14-507M
In words: Trk B Fluorescence Polarization Kinase Assay. In kind it is biochemical. As to conditions: uncertainty ±10%. The essentials:
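The TrkB kinase reaction (50 nM enzyme, 20 ug/mL poly Glu4Tyr, 150 uM ATP, 5 mM MgCl2, 1% DMSO) ran 30 minutes at room temperature and was stopped with EDTA. Phosphorylation was detected by fluorescence-polarization displacement of a fluorescein phosphopeptide from an anti-phosphotyrosine antibody. IC50 came from a variable-slope sigmoidal fit of triplicates.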
(Polarisation of emitted light reports the rotation of a fluorescent probe.)
In turn, `CN(C)[C@@H]1CCN(c2ccc3c(C4CCN(C(=O)Nc5ccc(N6CCCC6)cc5)CC4)ncnc3c2)C1` [Compound 149, (R)-4-[7-(3-Dimethylamino-pyrrolidin-1-yl)-quinazolin-4-yl]-piperidine-1-carboxylic acid (4-pyrrolidin-1-yl-phenyl)-amide] registered an IC50 of 7.26 µM. For `CN(C)[C@@H]1CCN(c2ccc3c(C4CCN(C(=O)Nc5ccc(N6CCOCC6)cc5)CC4)ncnc3c2)C1` [Compound 150, (R)-4-[7-(3-Dimethylamino-pyrrolidin-1-yl)-quinazolin-4-yl]-piperidine-1-carboxylic acid (4-morpholin-4-yl-phenyl)-amide], the half-inhibitory concentration (IC50) was > 42 µM. For `CN1CCC[C@H]1COc1ccc2c(C3CCN(C(=O)Nc4ccc(N5CCCC5)cc4)CC3)ncnc2c1` [Compound 151, (S)-4-[7-(1-Methyl-pyrrolidin-2-ylmethoxy)-quinazolin-4-yl]-piperidine-1-carboxylic acid (4-pyrrolidin-1-yl-phenyl)-amide], the IC50 is > 42 µM. Compound `O=C(Nc1ccc(N2CCCC2)cc1)N1CCC(c2ncnc3cc(OCCN4CCC[C@H]4CO)ccc23)CC1` [Compound 152, (S)-4-{7-[2-(2-Hydroxymethyl-pyrrolidin-1-yl)-ethoxy]-quinazolin-4-yl}-piperidine-1-carboxylic acid (4-pyrrolidin-1-yl-phenyl)-amide] registered an IC50 of 32.7 µM. Consider `O=C(Nc1ccc(N2CCOCC2)cc1)N1CCC(c2ncnc3cc(OCCN4CCC[C@H]4CO)ccc23)CC1` [Compound 153, (S)-4-{7-[2-(2-Hydroxymethyl-pyrrolidin-1-yl)-ethoxy]-quinazolin-4-yl}-piperidine-1-carboxylic acid (4-morpholin-4-yl-phenyl)-amide], for which the IC50 was > 42 µM. For `CC(=O)N1CC[C@@H](Oc2ccc3c(C4CCN(C(=O)Nc5ccc(N6CCCC6)cc5)CC4)ncnc3c2)C1` [Compound 154, (R)-4-[7-(1-Acetyl-pyrrolidin-3-yloxy)-quinazolin-4-yl]-piperidine-1-carboxylic acid (4-pyrrolidin-1-yl-phenyl)-amide], the IC50 was > 42 µM. Compound `CNC(=O)C1CCN(c2ccc3c(C4CCN(C(=O)Nc5ccc(N6CCCC6)cc5)CC4)ncnc3c2)CC1` [Compound 155, 4-[7-(4-Carboxylic acid methylamide-piperidin-1-yl)-quinazolin-4-yl]-piperidine-1-carboxylic acid (4-pyrrolidin-1-yl-phenyl)-amide] registered an IC50 of 11 µM. On to `CN1CCN(CCOc2ccc3c(C4CCN(C(=O)Nc5ccc(N6CCOCC6)cc5)CC4)ncnc3c2)CC1` [Compound 156, 4-{7-[2-(4-Methyl-piperazin-1-yl)-ethoxy]-quinazolin-4-yl}-piperidine-1-carboxylic acid (4-morpholin-4-yl-phenyl)-amide], for which the IC50 was > 21 µM. `CN1CCN(CCOc2ccc3c(C4CCN(C(=O)Nc5ccc(N6CCCC6)cc5)CC4)ncnc3c2)CC1` [Compound 157, 4-{7-[2-(4-Methyl-piperazin-1-yl)-ethoxy]-quinazolin-4-yl}-piperidine-1-carboxylic acid (4-pyrrolidin-1-yl-phenyl)-amide] gave an IC50 of 7.05 µM. The compound `CN1CCN(CCCOc2ccc3c(C4CCN(C(=O)Nc5ccc(N6CCCC6)cc5)CC4)ncnc3c2)CC1` [Compound 158, 4-{7-[3-(4-Methyl-piperazin-1-yl)-propoxy]-quinazolin-4-yl}-piperidine-1-carboxylic acid (4-pyrrolidin-1-yl-phenyl)-amide] registered an IC50 of 5 µM. As for `CN1CCN(c2ccc3c(C4CCN(C(=O)Nc5ccc(N6CCCC6)cc5)CC4)ncnc3c2)CC1` [Compound 159, 4-[7-(4-Methyl-piperazin-1-yl)-quinazolin-4-yl]-piperidine-1-carboxylic acid (4-pyrrolidin-1-yl-phenyl)-amide], half-maximal inhibition (IC50) required 7.86 µM. Compared with the last compound, the IC50 is about 1.6-fold higher. On to `CN1CCN(c2ccc3c(C4CCN(C(=O)Nc5ccc(N6CCCC6)nc5)CC4)ncnc3c2)CC1` [Compound 160, 4-[7-(4-Methyl-piperazin-1-yl)-quinazolin-4-yl]-piperidine-1-carboxylic acid (6-pyrrolidin-1-yl-pyridin-3-yl)-amide], for which 6.45 µM corresponded to half-maximal inhibition (IC50).
